Assay results published in US20250059188A1, “ARYLSULPHONAMIDE COMPOUNDS” (Anaxis Pharma Pty Ltd, priority 2021, published 2025).

Legend:
[1] = molecular target: human MLKL (full length) (Homo sapiens (Human), UniProt Q8NB16); test: KINOMEscan binding assay, human MLKL (full length); settings: equilibrium dissociation constant
Outline: (§1)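 Kd values come from dose-response fits to the Hill equation (Hill slope −1, Levenberg–Marquardt least squares). Compound competed with bead-bound ligand for tagged kinase, and remaining kinase was measured by qPCR after elution. Dilution series: 11 points, 3-fold, 1% DMSO final, top 30,000 nM in most runs.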

[2] = molecular target: human RIPK1 (Homo sapiens (Human), UniProt Q13546); test: KINOMEscan binding assay, human RIPK1; settings: equilibrium dissociation constant
human RIPK1, sequence (Q13546 whole entry): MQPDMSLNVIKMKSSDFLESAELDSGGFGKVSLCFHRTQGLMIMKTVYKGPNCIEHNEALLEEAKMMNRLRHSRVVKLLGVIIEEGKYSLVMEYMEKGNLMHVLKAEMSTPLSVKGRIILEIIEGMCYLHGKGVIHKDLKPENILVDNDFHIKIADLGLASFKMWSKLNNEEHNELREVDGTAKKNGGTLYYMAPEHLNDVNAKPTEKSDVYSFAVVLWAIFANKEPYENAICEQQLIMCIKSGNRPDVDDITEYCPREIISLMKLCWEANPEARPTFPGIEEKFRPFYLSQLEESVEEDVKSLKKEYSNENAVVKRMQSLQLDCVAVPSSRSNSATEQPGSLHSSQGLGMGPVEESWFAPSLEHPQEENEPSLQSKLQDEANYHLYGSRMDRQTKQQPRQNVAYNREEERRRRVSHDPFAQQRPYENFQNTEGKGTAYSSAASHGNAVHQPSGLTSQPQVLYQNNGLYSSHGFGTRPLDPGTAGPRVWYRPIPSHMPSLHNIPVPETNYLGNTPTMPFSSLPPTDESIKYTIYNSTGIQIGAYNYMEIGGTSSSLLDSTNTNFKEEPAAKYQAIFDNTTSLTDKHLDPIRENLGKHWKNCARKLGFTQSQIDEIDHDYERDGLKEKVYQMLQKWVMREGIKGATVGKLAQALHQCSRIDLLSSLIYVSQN
Outline: as §1

[3] = molecular target: human RIPK3 (Homo sapiens (Human), UniProt Q9Y572); test: KINOMEscan binding assay, human RIPK3; settings: equilibrium dissociation constant
human RIPK3, sequence (Q9Y572 whole entry): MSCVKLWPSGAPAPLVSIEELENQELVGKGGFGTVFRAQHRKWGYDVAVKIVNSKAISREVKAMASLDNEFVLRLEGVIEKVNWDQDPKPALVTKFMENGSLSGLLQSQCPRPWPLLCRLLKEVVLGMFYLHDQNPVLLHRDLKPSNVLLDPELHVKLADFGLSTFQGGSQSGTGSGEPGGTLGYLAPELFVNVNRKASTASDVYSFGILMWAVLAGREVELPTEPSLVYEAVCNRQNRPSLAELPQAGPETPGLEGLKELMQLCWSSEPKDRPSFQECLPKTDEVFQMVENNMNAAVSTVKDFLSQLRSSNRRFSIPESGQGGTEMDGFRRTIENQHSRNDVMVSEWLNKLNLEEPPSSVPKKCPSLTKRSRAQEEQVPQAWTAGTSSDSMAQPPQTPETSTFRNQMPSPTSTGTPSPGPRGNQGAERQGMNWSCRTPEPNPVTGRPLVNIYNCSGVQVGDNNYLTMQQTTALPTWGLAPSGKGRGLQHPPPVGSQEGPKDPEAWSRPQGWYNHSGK
Outline: as §1

[4] = system: U937 human histiocytic leukemia cell line; test: Inhibition of TSQ induced necroptosis in U937 cells (CellTitre-Glo); settings: Homo sapiens, U-937, TSQ cocktail (TNF, Smac mimetic, Q-VD-OPh), 48 hours, read-out: Inhibition of TSQ-induced necroptosis (IC50 cell-based assay)
Outline: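 U937 cells (20000/well) treated with compound (10-point, 1:3 from 36 μM, 0.3% DMSO) plus TSQ cocktail (hTNF-Fc 100 ng/ml, Smac mimetic 500 nM, Q-VD-OPh 10 μM), 48 h at 37 °C. Viability by CellTiter-Glo luminescence; IC50 from 4-parameter logistic fit. Counter screen: same cells without TSQ.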

[5] = system: U937 cells; test: Counter screen: U937 cell viability without TSQ cocktail (off-target effect); set-up: species or system human; settings: Homo sapiens, U-937, compound without TSQ cocktail, read-out: Off-target effect (IC50 cell-based assay)
Outline: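 U937 cells (20,000/well) exposed to compound (10-point 1:3 titration from 36 μM, 0.3% DMSO) without TSQ cocktail for 48 h at 37 °C/5% CO2. Viability read as ATP by CellTiter-Glo luminescence; IC50 from 4-parameter logistic fit.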

human MLKL (full length), sequence (Q8NB16 whole entry): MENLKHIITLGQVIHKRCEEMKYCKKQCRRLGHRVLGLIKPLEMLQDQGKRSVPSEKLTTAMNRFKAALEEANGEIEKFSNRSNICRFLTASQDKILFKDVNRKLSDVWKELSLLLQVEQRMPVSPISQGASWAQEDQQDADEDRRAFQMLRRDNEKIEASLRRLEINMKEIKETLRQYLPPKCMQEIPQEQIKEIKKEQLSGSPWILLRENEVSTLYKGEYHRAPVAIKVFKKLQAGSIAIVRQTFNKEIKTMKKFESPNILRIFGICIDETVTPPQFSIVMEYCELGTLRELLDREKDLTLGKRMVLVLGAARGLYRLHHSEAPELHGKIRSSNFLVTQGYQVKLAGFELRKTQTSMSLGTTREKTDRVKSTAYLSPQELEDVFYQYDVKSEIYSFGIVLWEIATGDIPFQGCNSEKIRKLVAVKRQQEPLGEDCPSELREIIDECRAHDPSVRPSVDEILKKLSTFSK

SMILES | Kd [1] | Kd [2] | Kd [3] | IC50 [4] | IC50 [5]
C[C@H](Oc1cc(-c2nn(C)c3c(C4=CCN(C)CC4)cnc(N)c23)ccc1NS(=O)(=O)C(F)F)c1ccc(F)cc1 [Compound 21, (S)-N-(4-(4-amino-1-methyl-7-(1-methyl-1,2,3,6-tetrahydropyridin-4-yl)-1H-pyrazolo[4,3-c]pyridin-3-yl)-2-(1-(4-fluorophenyl)ethoxy)phenyl)-1,1-difluoromethanesulfonamide] | < 0.001 µM | > 10 µM | > 10 µM | 1 to 10 µM | > 10 µM
C[C@H](Oc1cc(-c2nn(C)c3c(N4CCOCC4)cnc(N)c23)ccc1NS(=O)(=O)C(F)F)c1ccc(F)cc1 [Compound 141, N-{4-[4-amino-1-methyl-7-(morpholin-4-yl)-1H-pyrazolo[4,3-c]pyridin-3-yl]-2-[(1S)-1-(4-fluorophenyl)ethoxy]phenyl}-1,1-difluoromethanesulfonamide] | 0.001 to 0.1 µM | > 10 µM | > 10 µM | 0.01 to 1 µM | > 10 µM
COc1cc(-c2cnc(N)c3c(-c4ccc(NS(=O)(=O)C(F)F)c(O[C@@H](C)c5ccc(F)cc5)c4)nn(C)c23)ccn1 [Compound 27, (S)-N-(4-(4-amino-7-(2-methoxypyridin-4-yl)-1-methyl-1H-pyrazolo[4,3-c]pyridin-3-yl)-2-(1-(4-fluorophenyl)ethoxy)phenyl)-1,1-difluoromethanesulfonamide] | 0.001 to 0.1 µM | > 10 µM | > 10 µM | 0.01 to 1 µM | > 10 µM
C[C@H](Oc1cc(-c2nn(C)c3c(-c4ccccc4)cnc(N)c23)ccc1NS(=O)(=O)C(F)F)c1ccc(F)cc1 [Compound 86, (S)-N-(4-(4-amino-1-methyl-7-phenyl-1H-pyrazolo[4,3-c]pyridin-3-yl)-2-(1-(4-fluorophenyl)ethoxy)phenyl)-1,1-difluoromethanesulfonamide] | 0.001 to 0.1 µM | > 10 µM | > 10 µM | 0.01 to 1 µM | > 10 µM
C[C@H](Oc1cc(-c2nn(C)c3c(-c4cnn(C5CCN(C)C5)c4)cnc(N)c23)ccc1NS(=O)(=O)C(F)F)c1ccc(F)cc1 (stereo partly drawn) [Compound 93, N-(4-(4-amino-1-methyl-7-(1-(1-methylpyrrolidin-3-yl)-1H-pyrazol-4-yl)-1H-pyrazolo[4,3-c]pyridin-3-yl)-2-((S)-1-(4-fluorophenyl)ethoxy)phenyl)-1,1-difluoromethanesulfonamide] | < 0.001 µM | > 10 µM | > 10 µM | 0.01 to 1 µM | > 10 µM
C[C@H](Oc1cc(-c2nn(C)c3c(-c4cc(C#N)n(C)c4)cnc(N)c23)ccc1NS(=O)(=O)C(F)F)c1ccc(F)cc1 [Compound 83, (S)-N-(4-(4-amino-7-(5-cyano-1-methyl-1H-pyrrol-3-yl)-1-methyl-1H-pyrazolo[4,3-c]pyridin-3-yl)-2-(1-(4-fluorophenyl)ethoxy)phenyl)-1,1-difluoromethanesulfonamide] | 0.001 to 0.1 µM | > 10 µM | > 10 µM | 0.01 to 1 µM | > 10 µM
C[C@H](Oc1cc(-c2nn(C)c3c(-c4cnn(C5(C#N)CC5)c4)cnc(N)c23)ccc1NS(=O)(=O)C(F)F)c1ccc(F)cc1 [Compound 96, (S)-N-(4-(4-amino-7-(1-(1-cyanocyclopropyl)-1H-pyrazol-4-yl)-1-methyl-1H-pyrazolo[4,3-c]pyridin-3-yl)-2-(1-(4-fluorophenyl)ethoxy)phenyl)-1,1-difluoromethanesulfonamide] | < 0.001 µM | > 10 µM | > 10 µM | 0.01 to 1 µM | > 10 µM
C[C@H](Oc1cc(-c2nn(C)c3c(-c4ccnc(C(C)(C)C)c4)cnc(N)c23)ccc1NS(=O)(=O)C(F)F)c1ccc(F)cc1 [Compound 48, (S)-N-(4-(4-amino-7-(2-(tert-butyl)pyridin-4-yl)-1-methyl-1H-pyrazolo[4,3-c]pyridin-3-yl)-2-(1-(4-fluorophenyl)ethoxy)phenyl)-1,1-difluoromethanesulfonamide] | 0.001 to 0.1 µM | > 10 µM | > 10 µM | 1 to 10 µM | > 10 µM
C[C@H](Oc1cc(-c2nn(C)c3c(C#CC4CCN(CC(F)(F)F)CC4)cnc(N)c23)ccc1NS(=O)(=O)C(F)F)c1ccc(F)cc1 [Compound 128, (S)-N-(4-(4-amino-1-methyl-7-((1-(2,2,2-trifluoroethyl)piperidin-4-yl)ethynyl)-1H-pyrazolo[4,3-c]pyridin-3-yl)-2-(1-(4-fluorophenyl)ethoxy)phenyl)-1,1-difluoromethanesulfonamide] | 0.001 to 0.1 µM | > 10 µM | > 10 µM | 0.01 to 1 µM | > 10 µM
C[C@H](Oc1cc(-c2nn(C)c3c(-c4cnn(CC5CCCN5)c4)cnc(N)c23)ccc1NS(=O)(=O)C(F)F)c1ccc(F)cc1 (stereo partly drawn) [Compound 88, N-(4-(4-amino-1-methyl-7-(1-(pyrrolidin-2-ylmethyl)-1H-pyrazol-4-yl)-1H-pyrazolo[4,3-c]pyridin-3-yl)-2-((S)-1-(4-fluorophenyl)ethoxy)phenyl)-1,1-difluoromethanesulfonamide] | < 0.001 µM | > 10 µM | > 10 µM | 0.01 to 1 µM | > 10 µM
C[C@H](Oc1cc(-c2nn(C)c3c(-c4ccc(N5CCN(C)CC5)nc4)cnc(N)c23)ccc1NS(=O)(=O)C(F)F)c1ccc(F)cc1 [Compound 107, (S)-N-(4-(4-amino-1-methyl-7-(6-(4-methylpiperazin-1-yl)pyridin-3-yl)-1H-pyrazolo[4,3-c]pyridin-3-yl)-2-(1-(4-fluorophenyl)ethoxy)phenyl)-1,1-difluoromethanesulfonamide] | < 0.001 µM | > 10 µM | > 10 µM | 0.01 to 1 µM | > 10 µM
C[C@H](Oc1cc(-c2nn(C)c3c(C4CCN(C)CC4)cnc(N)c23)ccc1NS(=O)(=O)C(F)F)c1ccc(F)cc1 [Compound 42, (S)—N-(4-(4-amino-1-methyl-7-(1-methylpiperidin-4-yl)-1H-pyrazolo[4,3-c]pyridin-3-yl)-2-(1-(4-fluorophenyl)ethoxy)phenyl)-1,1-difluoromethanesulfonamide] | 0.1 to 10 µM | > 10 µM | > 10 µM | 1 to 10 µM | > 10 µM
CCS(=O)(=O)Nc1ccc(-c2nn(C)c3c(-c4cnn(C5CCOCC5)c4)cnc(N)c23)cc1O[C@@H](C)c1ccc(F)cc1 [Compound 45, (S)-N-(4-(4-amino-1-methyl-7-(1-(tetrahydro-2H-pyran-4-yl)-1H-pyrazol-4-yl)-1H-pyrazolo[4,3-c]pyridin-3-yl)-2-(1-(4-fluorophenyl)ethoxy)phenyl)ethanesulfonamide] | 0.001 to 0.1 µM | > 10 µM | > 10 µM | 0.01 to 1 µM | > 10 µM
C[C@H](Oc1cc(-c2nn(C)c3c(-c4ccn(C)c4)cnc(N)c23)ccc1NS(=O)(=O)C(F)F)c1ccc(F)cc1 [Compound 126, (S)-N-(4-(4-amino-1-methyl-7-(1-methyl-1H-pyrrol-3-yl)-1H-pyrazolo[4,3-c]pyridin-3-yl)-2-(1-(4-fluorophenyl)ethoxy)phenyl)-1,1-difluoromethanesulfonamide] | 0.001 to 0.1 µM | > 10 µM | > 10 µM | 0.01 to 1 µM | > 10 µM
CC(C)N1CC(n2cc(-c3cnc(N)c4c(-c5ccc(NS(=O)(=O)C(F)F)c(O[C@@H](C)c6ccc(F)cc6)c5)nn(C)c34)cn2)C1 [Compound 76, (S)-N-(4-(4-amino-7-(1-(1-isopropylazetidin-3-yl)-1H-pyrazol-4-yl)-1-methyl-1H-pyrazolo[4,3-c]pyridin-3-yl)-2-(1-(4-fluorophenyl)ethoxy)phenyl)-1,1-difluoromethanesulfonamide] | < 0.001 µM | > 10 µM | > 10 µM | < 0.01 µM | > 10 µM
C[C@H](Oc1cc(-c2nn(C)c3c(-c4ccc5c(c4)CC(=O)N5C)cnc(N)c23)ccc1NS(=O)(=O)C(F)F)c1ccc(F)cc1 [Compound 165, (S)-N-(4-(4-amino-1-methyl-7-(1-methyl-2-oxoindolin-5-yl)-1H-pyrazolo[4,3-c]pyridin-3-yl)-2-(1-(4-fluorophenyl)ethoxy)phenyl)-1,1-difluoromethanesulfonamide] | 0.001 to 0.1 µM | > 10 µM | > 10 µM | 0.01 to 1 µM | > 10 µM
C[C@H](Oc1cc(-c2nn(C)c3c(-c4cccnc4)cnc(N)c23)ccc1NS(=O)(=O)C(F)F)c1ccc(F)cc1 [Compound 25, (S)-N-(4-(4-amino-1-methyl-7-(pyridin-3-yl)-1H-pyrazolo[4,3-c]pyridin-3-yl)-2-(1-(4-fluorophenyl)ethoxy)phenyl)-1,1-difluoromethanesulfonamide] | < 0.001 µM | > 10 µM | > 10 µM | 0.01 to 1 µM | > 10 µM
